# From PubChem BioAssay (NCI)
# Several values for one entry are separate records, joined by “and”; a condition that tells them apart may be missing. Identical values can stand only once.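 96-well plates; 48 h exposure; 5 concentrations. Endpoints by linear interpolation between flanking doses. Not reached: highest tested concentration assigned. The concentration for 50% growth inhibition is given as GI50. TGI: total growth inhibition.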
# Test system: HS 578T breast
# Test: growth of human tumour cells (NCI), 48 h
SMILES,TGI,GI50
CCCCCCCCCC/C=C/CC(=O)SCCNC(=O)CCNC(=O)[C@@H](O)C(C)(C)COP(=O)(O)OP(=O)(O)OCC1OC(n2cnc3c(N)ncnc32)C(O)C1OP(=O)(O)O (stereo partly specified),> 10 µM,–
OCCN1CN(CCO)CN(c2nc(N3CN(CCO)CN(CCO)C3)nc(N3CN(CCO)CN(CCO)C3)n2)C1,9.43 ng/mL,3.08 ng/mL
Ic1ccc(Nc2nc3nonc3nc2Nc2ccc(I)cc2)cc1,2.21 µM,0.329 µM
O=C(Nc1ccc(OS(=O)(=O)c2ccccc2)cc1)C12CC3CC(CC(C3)C1)C2,> 100 µM,7.29 µM
O=S(=O)([O-])c1ccc2c(c1)-c1nc-2nc2[n-]c(nc3nc(nc4[n-]c(n1)c1ccc(S(=O)(=O)[O-])cc41)-c1cc(S(=O)(=O)[O-])ccc1-3)c1ccc(S(=O)(=O)[O-])cc21.[Cu+2].[Na+],> 100 µM,> 100 µM
COc1ccc(N(C)c2ncnc3occ(C)c23)cc1,< 0.01 µM,< 0.01 µM
CCC[CH2][Sn]([CH2]CCC)([CH2]CCC)[O]C(=O)CC,0.708 µM,0.18 µM
NC(=NCCCOc1ccc(Cl)cc1)Nc1ccc(C(F)(F)F)cc1,18.8 µM,3.35 µM
C=CC1CC12C(=O)C1OC2(C)C2C(=O)c3cc4ccccc4cc3C(=O)C12 (stereo unspecified),92 µM,27 µM

# Test system: LOX IMVI melanoma
# Test: growth of human tumour cells (NCI), 48 h
SMILES,TGI,GI50 [µM]
O=[n+]1c2c(n([O-])c3ccccc31)CCCCCCCCCC2,> 100 µM,–
CNC(=S)N(C)C(=S)Nn1c(=O)c(C)nn(C)c1=S,> 100 µM,–
CCCCCCCCCC/C=C/CC(=O)SCCNC(=O)CCNC(=O)[C@@H](O)C(C)(C)COP(=O)(O)OP(=O)(O)OCC1OC(n2cnc3c(N)ncnc32)C(O)C1OP(=O)(O)O (stereo partly specified),> 10 µM,–
O=C1CCCC/C(=C/c2ccccc2)N1,> 100 µM,–
CCCCN(CCCC)CC(C(=O)Nc1ccc([N+](=O)[O-])cc1[N+](=O)[O-])/C(C)=N\NC(=S)NN (stereo unspecified),> 100 µM,–
S=C(N/N=C/c1ccco1)NC12CC3CC(CC(C3)C1)C2,> 100 µM,–
CC(=O)O.CC(=O)O.CC(=O)O.CC(=O)O.CC(=O)O.CC(=O)O.O.[Ti].[Ti],> 100 µM,> 100
COC(=O)C1=C(c2ccc3c(c2)OCO3)O[C@H](c2cc(OC)c(OC)c(OC)c2)[C@H]1COC(C)=O,55.3 µM,–
COc1ccc(OC)c(NC(=O)C(=O)NNC(=O)c2sc(NNC(C)=O)nc2C)c1,83.3 µM,–
O=C(Nc1ccc(OS(=O)(=O)c2ccccc2)cc1)C12CC3CC(CC(C3)C1)C2,> 100 µM,4.38
O=[N+]([O-])c1nccn1CC(O)c1ccc(F)cc1 (stereo unspecified),> 100 µM,–
COc1ccc(NC(=O)CCc2cc(-c3ccc(O)c(OC)c3)nc(NC#N)n2)cc1,> 100 µM,–
COC(=O)c1cc2c3ccccc3n(C(C)=O)c2cn1,> 100 µM,–
O=C1c2ccccc2C2(Br)C(=O)c3ccccc3C12 (stereo unspecified),26.4 µM,–
O=S(=O)([O-])c1ccc2c(c1)-c1nc-2nc2[n-]c(nc3nc(nc4[n-]c(n1)c1ccc(S(=O)(=O)[O-])cc41)-c1cc(S(=O)(=O)[O-])ccc1-3)c1ccc(S(=O)(=O)[O-])cc21.[Cu+2].[Na+],> 100 µM,3.29
COc1ccc(N(C)c2ncnc3occ(C)c23)cc1,> 100 µM,< 0.01

SMILES,TGI,GI50 [µM]
CCCCOC(=O)C1C(c2ccc(Cl)cc2)NC(c2ccc(Cl)cc2)C(C(=O)OCCCC)S1(=O)=O (stereo unspecified),> 100 µM,–
Cc1cc(Br)cc(C)c1NC(=O)C(=O)C(C(=O)c1ccc2ccccc2c1)C1OC(=O)c2ccccc21 (stereo unspecified),31.1 µM,–
CC(=O)Nc1ccc(C(=O)NN2C(=O)C(Cl)C2c2ccccc2)cc1 (stereo unspecified),> 100 µM,–
CC(C)(C)OC(=O)NCC(=O)OCc1ccccc1,> 100 µM,–
Cc1ccc(SC(C)/C=C/NNC2=NC(c3ccccc3)C(c3ccccc3)=NN2)cc1 (stereo unspecified),> 100 µM,–
CSc1nc2c(nc(C)c(=O)n2C2OCC(OC(C)=O)C(OC(C)=O)C2OC(C)=O)c(=O)[nH]1 (stereo unspecified),> 100 µM,–
O=S(O)CCCCSSCC(O)C(O)CSSCCCCS(=O)O (stereo unspecified),38.1 µM and 72.7 µM,–
COc1ccc(C2S/C(=C\c3ccccc3O)C(=O)N2NC(=O)Cc2ccccc2)cc1 (stereo unspecified),> 100 µM,–
Cc1ccc(S(=O)(=O)NCC2CCCCC2=O)cc1 (stereo unspecified),> 100 µM,–
CNC(=S)NC1CCCCC1NC(=S)NC (stereo unspecified),> 100 µM,–
CC1OC(n2cc(F)c(=O)[nH]c2=O)C=CC1O (stereo unspecified),> 64.3 µM,–
C=C(C=O)[C@@H]1C2OC(=O)C(=C)[C@@H]2CC(O)[C@@]1(C)CC (stereo partly specified),34.7 µM,–
C=C(CCCCC)CN1CCCC1[C@@](C)(O)CC(=O)OCC (stereo partly specified),> 100 µM,–
NC(=NCCCOc1ccc(Cl)cc1)Nc1ccc(C(F)(F)F)cc1,2.77 µM,1.46
O=C1c2ccccc2C(=O)C1(Cl)C1(S(=O)(=O)O)c2ccccc2-c2ccccc21,> 100 µM,–

# Test system: MOLT-4 leukemia
# Test: growth of human tumour cells (NCI), 48 h
SMILES,TGI,GI50
O=[n+]1c2c(n([O-])c3ccccc31)CCCCCCCCCC2,> 100 µM,–
CNC(=S)N(C)C(=S)Nn1c(=O)c(C)nn(C)c1=S,> 100 µM,–
CCCCCCCCCC/C=C/CC(=O)SCCNC(=O)CCNC(=O)[C@@H](O)C(C)(C)COP(=O)(O)OP(=O)(O)OCC1OC(n2cnc3c(N)ncnc32)C(O)C1OP(=O)(O)O (stereo partly specified),> 10 µM,–
OCCN1CN(CCO)CN(c2nc(N3CN(CCO)CN(CCO)C3)nc(N3CN(CCO)CN(CCO)C3)n2)C1,4.78 ng/mL,1.23 ng/mL
O=C1CCCC/C(=C/c2ccccc2)N1,> 100 µM,–
O=C1CN=C(C[N+](=O)[O-])c2ccccc21,> 100 µM,–
CCCCN(CCCC)CC(C(=O)Nc1ccc([N+](=O)[O-])cc1[N+](=O)[O-])/C(C)=N\NC(=S)NN (stereo unspecified),> 100 µM,–
S=C(N/N=C/c1ccco1)NC12CC3CC(CC(C3)C1)C2,> 100 µM,–
CS(=O)(=O)N/N=C/CN1C(=O)c2ccccc2C1=O,> 100 µM,–
Ic1ccc(Nc2nc3nonc3nc2Nc2ccc(I)cc2)cc1,1.06 µM,0.256 µM
CC(=O)O.CC(=O)O.CC(=O)O.CC(=O)O.CC(=O)O.CC(=O)O.O.[Ti].[Ti],> 100 µM,> 100 µM
COC(=O)C1=C(c2ccc3c(c2)OCO3)O[C@H](c2cc(OC)c(OC)c(OC)c2)[C@H]1COC(C)=O,27.8 µM,–
COc1ccc(OC)c(NC(=O)C(=O)NNC(=O)c2sc(NNC(C)=O)nc2C)c1,47.1 µM,–
O=C(Nc1ccc(OS(=O)(=O)c2ccccc2)cc1)C12CC3CC(CC(C3)C1)C2,> 100 µM,5.05 µM
O=[N+]([O-])c1nccn1CC(O)c1ccc(F)cc1 (stereo unspecified),> 100 µM,–
COc1ccc(NC(=O)CCc2cc(-c3ccc(O)c(OC)c3)nc(NC#N)n2)cc1,> 100 µM,–
COC(=O)c1cc2c3ccccc3n(C(C)=O)c2cn1,> 100 µM,–
O=C1c2ccccc2C2(Br)C(=O)c3ccccc3C12 (stereo unspecified),> 100 µM,–
O=S(=O)([O-])c1ccc2c(c1)-c1nc-2nc2[n-]c(nc3nc(nc4[n-]c(n1)c1ccc(S(=O)(=O)[O-])cc41)-c1cc(S(=O)(=O)[O-])ccc1-3)c1ccc(S(=O)(=O)[O-])cc21.[Cu+2].[Na+],> 100 µM,2.19 µM
COc1ccc(N(C)c2ncnc3occ(C)c23)cc1,0.0481 µM,< 0.01 µM

SMILES,TGI,GI50
CCCCOC(=O)C1C(c2ccc(Cl)cc2)NC(c2ccc(Cl)cc2)C(C(=O)OCCCC)S1(=O)=O (stereo unspecified),> 100 µM,–
Cc1cc(Br)cc(C)c1NC(=O)C(=O)C(C(=O)c1ccc2ccccc2c1)C1OC(=O)c2ccccc21 (stereo unspecified),13.4 µM,–
CCOC(=O)Oc1c(OC)cc(C(=O)NC2CCc3cc(OC)c(OC)c(OC)c3-c3ccc(SC)c(=O)cc32)cc1OC (stereo unspecified),> 70 µM,< 0.007 µM
CC(=O)Nc1ccc(C(=O)NN2C(=O)C(Cl)C2c2ccccc2)cc1 (stereo unspecified),> 100 µM,–
CC(C)(C)OC(=O)NCC(=O)OCc1ccccc1,> 100 µM,–
Cc1ccc(SC(C)/C=C/NNC2=NC(c3ccccc3)C(c3ccccc3)=NN2)cc1 (stereo unspecified),> 100 µM,–
CC(C)(C)[SiH]12(OC(C(F)(F)F)(C(F)(F)F)c3ccccc31)OC(C(F)(F)F)(C(F)(F)F)c1ccccc12,5.41 µM,–
CSc1nc2c(nc(C)c(=O)n2C2OCC(OC(C)=O)C(OC(C)=O)C2OC(C)=O)c(=O)[nH]1 (stereo unspecified),> 100 µM,–
O=S(O)CCCCSSCC(O)C(O)CSSCCCCS(=O)O (stereo unspecified),6.69 µM and 9.58 µM,–
O=C1OC(c2ccccc2)=N/C1=C/C=C/c1ccco1,> 100 µM,–
Cc1ccccc1N1C(=O)/C(=C/c2ccc(N(CCC#N)CCC#N)cc2)N=C1c1cc([N+](=O)[O-])ccc1Cl,> 100 µM,–
COc1ccc(C2S/C(=C\c3ccccc3O)C(=O)N2NC(=O)Cc2ccccc2)cc1 (stereo unspecified),> 100 µM,–
Cc1ccc(S(=O)(=O)NCC2CCCCC2=O)cc1 (stereo unspecified),> 100 µM,–
CCC[CH2][Sn]([CH2]CCC)([CH2]CCC)[O]C(=O)CC,1 µM,0.247 µM
CNC(=S)NC1CCCCC1NC(=S)NC (stereo unspecified),> 100 µM,–
CC1OC(n2cc(F)c(=O)[nH]c2=O)C=CC1O (stereo unspecified),> 100 µM,–
C=C(C=O)[C@@H]1C2OC(=O)C(=C)[C@@H]2CC(O)[C@@]1(C)CC (stereo partly specified),9.08 µM,–
C=C(CCCCC)CN1CCCC1[C@@](C)(O)CC(=O)OCC (stereo partly specified),> 100 µM,–
NC(=NCCCOc1ccc(Cl)cc1)Nc1ccc(C(F)(F)F)cc1,5 µM,1.41 µM
